{"source": "patent US10279053B2", "about": "“Microbubble compositions, method of making same, and method using same” (NuvOx Pharma LLC, priority 2011, dated 2019)", "key": {"[1]": {"test": "Boiling point / liquid-gas phase transition temperature of core gases", "type": "physicochemical", "details": "interstitial pressure of 795 mm Hg; gas law approximation", "from_the_text": "Applicant's gaseous precursors include, for example, fluorinated carbons, perfluorocarbons, sulfur hexafluoride, perfluoro ethers and combinations thereof. As the stilled artisan will appreciate, a particular fluorinated compound, such as sulfur hexafluoride, a perfluorocarbon or a perfluoro ether, may exist in the liquid state when the compositions are first made, and are thus used as a gaseous precursor. Whether the fluorinated compound is a liquid generally depends on its liquid/gas phase transition temperature, or boiling point. For example, a preferred perfluorocarbon, perfluoropentane, has a liquid/gas phase transition temperature (boiling point) of 29.5° C. This means that perfluoropentane is generally a liquid at room temperature (about 25° C.), but is converted to a gas within the human body, the normal temperature of which is about 37° C., which is above the transition temperature of perfluoropentane. Thus, under normal circumstances, perfluoropentane is a gaseous precursor. As known to one skilled in the art, the effective boiling point of a substance may be related to the pressure to which that substance is exposed. This relationship is exemplified by the ideal gas law: PV=nRT, where P is pressure, V is volume, n is moles of substance, R is the gas constant, and T is temperature. […] Conversely, as pressure decreases, the effective boiling point decreases. […]"}, "[2]": {"details": "standard pressure of about 760 mm Hg; cited from earlier work"}}, "data": [{"compound": "FC(F)(F)C(F)(F)C(F)(F)C(F)(F)C(F)(F)F", "note": "[Perfluoropentane]", "values": [{"measurement": "boiling point at interstitial pressure", "setting": "[1]", "value": "about 30.5 °C"}, {"measurement": "liquid/gas phase transition temperature (boiling point)", "setting": "[2]", "value": 29.5, "unit": "°C"}]}]}
